# In patent US5128345A, “Carcinostatic composition comprising indolquinolines” (Mect Corporation, priority 1988, dated 1992):
# Key:
# [1] = system: KB cells; test: Test for inhibiting multiplication/growth of KB cells (in vitro); format: cell-based, Human; settings: compound added Day 1, cells counted Day 4, 37° C., 5% CO2, 50% inhibition rate, 4320 min
# Protocol: 1) Function for Inhibiting Multiplication of KB-1 Cell (in vitro test)
# KB cells, carcinomatous cell tumors, were transferred to in vitro floatation incubator systems, and added respectively with the Compounds (1), (2) and (3). The results of cultivation added with the Compounds (1), (2) and (3) were compared with the result of the control which was not added with any compound.
# Cell used: KB Cell (Originating from Human Mouth Epidermal Cancer),
# Culture medium: Eagles Minimal Essential Medium supplemented with 10% Calf Serum,
# Cultivation: 37° C. Carbon dioxide Gas incubator (5% CO2).
# KB cells were diluted in the culture medium to adjust the KB cell density to 2 x 10^4 /ml.
# Three ml of the cell suspension was inoculated in each of 60 mm plastic dishes.
# Two dishes per standard dosage were used.
# Test compound was added to the medium so that the final concentrations were set to 100, 30, 10, 3 and 1 μg/ml.
# Cells were scraped off from the dish using trypsin, and the cell number was countered using a Corter counter.
# In general accordance with the stipulations set forth by the National Cancer Institute (NCI), U.S.A., the concentration of compound necessary for exerting 50% growth inhibition (ED50) compared to the control was determined.
# [2] = system: P-388; test: Prolongation of life span in P-388 cancer implanted mouse (in vivo); design: species or system CDF Mouse; settings: Day 1 and Day 5, P-388 inoculated i.p., 10^6 cells/mouse
# Protocol: Effect on Prolongation of Life Span in Cancer implanted Mouse and Acute Toxicity
# Pharmacological effects of the compounds as used in Test Example 1 were tested in vivo using P-388 implanted mice.
# Animal Used: CDF Mouse (6 mice/group),
# Number of Inowlated Cells: 10^6 cells/mouse,
# Day of Administration: Day 1 and Day 5,
# Dosage: LD50 or 400 mg/kg/day at the maximum.
# The treatment was judged as effective when the ratio of survival of the treated group to that of the control group (T/C %) was 120% or more. The survival period of the control group was generally about 10 days.
# [3] = J. Med. Chem., vol. 17, 922 (1974); among acridines with the 9-position alkylamino group replaced; cited from earlier work
SMILES,ED50: concentration of compound necessary for exerting 50% growth inhibition compared to the control (Concentration at Inhibition Rate 50%) [1],Ratio of Life Prolongation (T/C %) ([2]; 100 mg/kg),Ratio of Life Prolongation (T/C %) ([2]; 200 mg/kg),further results
"COc1cc(NS(C)(=O)=O)ccc1Nc1c2ccccc2nc2cc3ccccc3cc12 [Compound 2, N-(4-((benzo(b)acridine-12yl)amino)-3-methoxyphenyl)methanesulfonamide]",1.15 µg/mL,122%,130%,Ratio of Life Prolongation (T/C %) ([2]; 400 mg/kg): 130%
COc1cc(NS(C)(=O)=O)ccc1Nc1c2ccccc2nc2c1ccc1ccccc12 [Compound 3],,163%,204%,Ratio of Life Prolongation (T/C %) ([2]; 50 mg/kg): 157%
"COc1cc(NS(C)(=O)=O)ccc1Nc1c2ccccc2nc2ccccc12 [Amsacrine, N-(4-(9-acridylamino)-3-methoxyphenyl)methanesulfonamide]",,,,carcinostatic function [3]: highest carcinostatiac function
COc1cc(NS(C)(=O)=O)ccc1Nc1c2ccccc2nc2c1[nH]c1ccccc12 [Compound 1],0.3 µg/mL,,,Ratio of Life Prolongation (T/C %) ([2]; 6.25 mg/kg): 300%; Ratio of Life Prolongation (T/C %) ([2]; 12.5 mg/kg): 203%; Ratio of Life Prolongation (T/C %) ([2]; 25 mg/kg): 111%
